Assay type in all cases: cell-based
The test system of assay [1] is TNFα expression in ESdM cells. The assay is described as follows: ELISA assay: TNFα expression in ESdM cells stimulated with LPS and NECA or adenosine. Conditions: for IC50: 24 h, LPS-induced TNFα expression in the presence of NECA (100 nM NECA, 100 ng/ml LPS), read-out: EC50 (the source's name); for TNF alpha expression: 100 nM NECA, various antagonist concentrations; for functional character at human A2B adenosine receptors: conclusion from the ELISA functional experiment. As for the experimental part: With the ELISA assay in Fig. 5 the effects of adenosine receptor antagonists were investigated. […] In the presence of the antagonists to be investigated, the influence on the TNFα expression was analyzed. The cytokine expression was determined in the ELISA.
The determined EC50 concentration amounted to 60 nM. ESdM cells were stimulated with 100 nM of NECA and 100 ng/ml of LPS, and the A2B antagonist 1a was added to the stimulated cells at various concentrations for 24 h. The supernatants of the cells were investigated for TNFα expression in an ELISA.
Example 53: ELISA Assay The ELISA assay was used to investigate the effects of adenosine antagonists. […] In the presence of the antagonists to be investigated, their influence on TNFα expression was analyzed. The cytokine expression was determined in the ELISA (Fig. 5).
To evaluate, whether ESdM cells can be stimulated by Adenosine 3 x 10^5 ESdM cells were seeded in 12 wells. The next day the cells have been stimulated with 1 µM Adenosine (Sigma-Aldrich) and different concentrations of LPS (10 ng/ml, 100 ng/ml and 500 ng/ml, Sigma-Aldrich). Supernatants were collected 24 hours later and were analysed for TNFα expression in an ELISA (EBioscience). As shown here (Fig. 6A), ESdM cells are sensitive for stimulation with 1 µM adenosine. Best results are achieved with a LPS concentration of 100 ng/ml, whereas 500 ng/ml of LPS provide […] detectable TNFα values.
To examine, if ESdM cells can also be stimulated with the synthetic adenosine receptor agonist NECA, ESdM cells were seeded in 12 wells in the same concentration as mentioned before. These cells were treated with different concentrations of NECA (1 µM and 100 nM) and 100 ng/ml LPS. The next day supernatants were collected and analysed for TNFα expression.
To analyse the effect of the A2B antagonist 1a, 3 x 10^5 ESdM cells were seeded in 12 wells. The next day cells were stimulated with 100 nM NECA, 100 ng/ml LPS and various concentrations (10 pM-10 nM) of A2B-receptor antagonist 1a Supernatants of the cells were investigated for TNFα expression in an ELISA.
Background: ELISA stands for enzyme-linked immunosorbent assay.

In a further assay the target is T1, human A2B receptor (Homo sapiens, UniProt P29275).
T1 construct: expressed in transfected cells; host or cells: HEK cells
T1 sequence (P29275 1-332): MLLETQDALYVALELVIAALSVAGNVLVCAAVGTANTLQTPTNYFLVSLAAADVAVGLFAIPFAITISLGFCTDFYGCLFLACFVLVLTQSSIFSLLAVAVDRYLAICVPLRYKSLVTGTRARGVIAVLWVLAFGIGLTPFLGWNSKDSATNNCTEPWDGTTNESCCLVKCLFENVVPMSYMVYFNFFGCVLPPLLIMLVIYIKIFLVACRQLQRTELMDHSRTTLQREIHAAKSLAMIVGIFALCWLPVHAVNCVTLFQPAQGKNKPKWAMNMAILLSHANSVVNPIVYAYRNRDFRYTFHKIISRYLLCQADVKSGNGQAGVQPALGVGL
As to the kind of experiment: cAMP assay in HEK cells recombinantly expressing the human A2B receptor. On the technique in general: Changes in cAMP serve as a functional read-out for many G protein-coupled receptors.

The target in assay [2] is T2, human adenosine A2B receptor (Homo sapiens, UniProt P29275).
T2 construct: expressed in transfected cells; host or cells: CHO cells
T2 sequence (P29275 1-332): T1 sequence (P29275 1-332)
The assay is described as follows: cAMP assay in CHO cells recombinantly expressing the human adenosine A2B receptor (NECA dose-response curve shift). Conditions: for NECA-induced increase in cAMP formation / mode of antagonism (NECA curve shifted to the right): single antagonist concentration, ~5-fold of the Ki value. As for the experimental part:
Dose-response curves for the agonist NECA were determined in the absence and in the presence of a single concentration of the new antagonists 1d and 1f, using a ∼ 5-fold concentration of the Ki-values.

Protocol for human A2B receptor: Example 52: cAMP assay The preparation of cAMP binding protein was carried out as previously described by Nordstedt and Fredholm (Anal. Biochem. 1990, 189, 231-234). 5'-(N-Ethylcarboxamido)adenosine (NECA) was obtained from Sigma. For cAMP experiments HEK cells, expressed the human recombinant A2B receptor were removed from a confluent 175 cm^2 flask, transferred into a falcon tube and spun down at 200 g, 4 °C for 5 min. After removal of the supernatant, the cell pellet was resuspended in Hank's buffered saline solution (HBSS, pH 7.4). 200 µl of the cell solution (∼ 200.000 cells per well) with 2 U/ml ADA was transferred into each well of a 24-well plate. After an incubation time of 1.5 h at 37 °C, 5 % CO2, 25 µL of the phosphodiesterase (PDE) inhibitor Ro-20-1724 (40 µM f.c.), dissolved in 100 % HBSS-puffer was added to each well and incubated for 10 min at 37 °C. […] After 10 min incubation time 12.5 µl of agonist (NECA) dissolved in the same buffer as well, was added and incubated for 15 min at 37 °C. NECA was incubated in concentrations of 10 µM and 1 µM alone as an control experiment. […] Well plates were put on ice and each well was subsequently homogenised by pipetting 6-7 times up and down. Competition binding experiments were performed in a final volume of 120 µl containing 50 µl of cell lysates, 30 µl of [^3H]cAMP (f.c. 3 nM) in lysis buffer (4 mM EDTA, 0.01 % trition X-100) and 40 µl of cAMP binding protein in the same buffer (50 µg protein per vial). Total binding was determined in the absence of cold cAMP and nonspecific binding was determined in the absence of cold cAMP and without binding protein. For a cAMP standard curve 50 µl of known cAMP concentration was put instead of 50 µl cell lysate. […] Then, filters were transferred to vials, incubated for 9 h with 2.5 mL of scintillation cocktail (Beckmann Coulter), and counted in a liquid scintillation counter (Tricarb 2700TR) with a counting efficiency of ∼ 54%.

`Cn1c(=O)c2[nH]c(-c3cn(Cc4cccc(C(F)(F)F)c4)nn3)nc2n(C)c1=O` [1a, 1,3-Dimethyl-8-(1-(3-(trifluoromethyl)benzyl)-1H-1,2,3-triazol-4-yl)-1H-purine-2,6(3H,7H)-dione]: the IC50 in assay [1] (ESdM cells) came to 2600 nM. For the same molecule, the EC50 in assay [1] (ESdM cells, 100 nM NECA and 100 ng/ml LPS, antagonist for 24 h, TNFα in supernatant (Fig. 7A), read-out: EC50 concentration) came out at 60 nM. The TNF alpha expression result in assay [1] (ESdM cells, 100 ng/ml LPS) was “dose-dependent decrease”. In assay [1], the “functional character at human A2B adenosine receptors” value (“functional character” below) is on record as “confirmed as antagonists”. Besides, the “NECA-induced increase in cAMP formation” value at human A2B receptor (NECA 10 µM and 1 µM, antagonist 5 µM) is given as “inhibited”. Further, at human A2B receptor (compound alone), the “effect on cAMP levels of the compound itself” value was “no effect”.

For the molecule `CCn1c(=O)c2[nH]c(-c3cn(Cc4cccc(C(F)(F)F)c4)nn3)nc2n(CC)c1=O` [1b, 1,3-Diethyl-8-(1-(3-(trifluoromethyl)benzyl)-1H-1,2,3-triazol-4-yl)-1H-purine-2,6(3H,7H)-dione], the IC50 in assay [1] (ESdM cells) was 1090 nM. For the same molecule, the TNF alpha expression entry in assay [1] (ESdM cells, 100 ng/ml LPS) is “dose dependent decrease”. In addition, the “functional character” value in assay [1] is reported as “confirmed as antagonists”.

With `CCCn1c(=O)[nH]c2nc(-c3cn(Cc4cccc(C(F)(F)F)c4)nn3)[nH]c2c1=O` [1d, 1-Propyl-8-(1-(3-(trifluoromethyl)benzyl)-1H-1,2,3-triazol-4-yl)-1H-purine-2,6(3H,7H)-dione], in assay [1] (ESdM cells), the IC50 turned out to be 1110 nM. The TNF alpha expression entry in assay [1] (ESdM cells, 100 ng/ml LPS) is “dose dependent decrease”. Further, the “functional character” value in assay [1] is “confirmed as antagonists”. In assay [2], the “NECA-induced increase in cAMP formation” value was “inhibited” and the “mode of antagonism (NECA curve shifted to the right)” value is reported as “competitive antagonism”.

`C#CCn1c(=O)c2[nH]c(-c3cn(Cc4cccc(C(F)(F)F)c4)nn3)nc2n(C)c1=O` [1f, 3-Methyl-1-(prop-2-ynyl)-8-(1-(3-(trifluoromethyl)-benzyl)-1H-1,2,3-triazol-4-yl)-1H-purine-2,6(3H,7H)-dione]: the IC50 in assay [1] (ESdM cells) is 1360 nM. For the same molecule, the TNF alpha expression result in assay [1] (ESdM cells, 100 ng/ml LPS) is listed as “dose dependent decrease”. Moreover, the “functional character” value in assay [1] is reported as “confirmed as antagonists”. Besides, in assay [2], the “NECA-induced increase in cAMP formation” value is “inhibited” and the “mode of antagonism (NECA curve shifted to the right)” value is on record as “competitive antagonism”.

For the molecule `Cn1c(=O)n(CC2CC2)c(=O)c2[nH]c(-c3cn(Cc4cccc(C(F)(F)F)c4)nn3)nc21` [1g, 1-(Cyclopropylmethyl)-3-methyl-8-(1-(3-(trifluoromethyl)benzyl)-1H-1,2,3-triazol-4-yl)-1H-purine-2,6(3H,7H)-dione], the IC50 in assay [1] (ESdM cells) was found to be 2320 nM. For the same molecule, in assay [1] (ESdM cells, 100 ng/ml LPS), the TNF alpha expression entry is recorded as “dose dependent decrease”. Further, the “functional character” value in assay [1] is listed as “confirmed as antagonists”.

For the molecule `CCNC(=O)[C@H]1O[C@@H](n2cnc3c(N)ncnc32)[C@H](O)[C@@H]1O` [NECA, 5'-(N-Ethylcarboxamido)adenosine, reference compound], the “stimulation of TNFα expression in ESdM cells following LPS stimulation” value in assay [1] (1 µM and 100 nM NECA, 100 ng/ml LPS) is “sensitive”. Besides, the cAMP formation entry at human A2B receptor (agonist, 10 µM and 1 µM) is listed as “concentration-dependent increase”; in assay [2] (agonist dose-response curve) it was “concentration-dependent increase”.

Regarding `Nc1ncnc2c1ncn2[C@@H]1O[C@H](CO)[C@@H](O)[C@H]1O` [adenosine], the “stimulation of TNFα expression in ESdM cells following LPS stimulation” value in assay [1] (1 µM adenosine, LPS 10, 100 and 500 ng/ml, 24 hours) is listed as “sensitive”.

These data come from EP2465859A1, “8-Triazolylxanthine derivatives, processes for their production and their use as adenosine receptor antagonists” (Life & Brain GmbH, priority 2010, dated 2012).
